Experiments:
PKR(wt) = PKR(wt) (Homo sapiens, UniProt P30613); assay: Luminescence Biochemical Assay (Kinase Glo Plus), wild type PKR; conditions: without FBP; for AC50: read-out: G—AC50 LUM KGP woFBP AC50 μM gmean
Description: (§1) In some embodiments, a PKR Activating Compound refers to a compound having one or more characteristics when tested according to the following Luminescence Assay Protocol of Example 3 performed with wild type (wt) PKR and/or any one or more of G332S mutant form of PKR or R510Q mutant form of PKR: (1) an AC50 value of less than 40 μM (e.g., compounds with AC50 values of “+”, “++”, or “+++” in Table 2); (2) a maximum % Fold (MAX % Fold) value of greater than 75%; and/or (3) a % Fold value at 1.54 μM compound concentration (% Fold@1.54 μM) of at least 75%. In some embodiments, a PKR Activating Compound can have: (1) an AC50 value of less than 0.1 μM (e.g., compounds with AC50 values of “+++” in Table 2), 0.1-1.0 μM (e.g., compounds with AC50 values of “++” in Table 2), or 1.01-40 μM (e.g., compounds with AC50 values of “+” in Table 2); (2) a MAX % Fold of 75%-250%, 250-500%, or 75%-500%; and/or (3) a % Fold@1.54 μM of 75%-250%, 250-500%, or 75%-500%. In some embodiments, a PKR Activating Compound has (1) an AC50 value of less than 1.0 μM; (2) a MAX % Fold of 75%-500%; and/or (3) a % Fold@1.54 μM of 75%-500%.
(§2) The phosphorylation of Adenosine-5′-diphosphate (ADP) by various mutants of PKR was determined by the Kinase Glo Plus Assay (Promega) in the presence or absence of FBP [D-Fructose-1,6-diphosphate; BOC Sciences, CAS: 81028-91-3] as follows. Unless otherwise indicated, all reagents were purchased from Sigma-Aldrich. All reagents were prepared in buffer containing 50 mM Tris-HCl, 100 mM KCl, 5 mM MgCl2, and 0.01% Triton X100, 0.03% BSA, and 1 mM DTT. Enzyme and PEP [Phospho(enol) pyruvic acid] were added at 2× to all wells of an assay-ready plate containing serial dilutions of test compounds or DMSO vehicle. Final enzyme concentrations for PKR(wt), PKR(R510Q), and PKR(G332S) were 0.8 nM, 0.8 nM, and 10 nM respectively. Final PEP concentration was 100 μM. The Enzyme/PEP mixture was incubated with compounds for 30 minutes at RT before the assay was initiated with the addition of 2×ADP [Adenosine-5′-diphosphate] and KinaseGloPlus. Final concentration of ADP was 100 μM. […] For assays containing FBP, that reagent is added at 30 μM upon reaction initiation. Reactions were allowed to progress for 45 minutes at RT until luminescence was recorded by the BMG PHERAstar FS Multilabel Reader. All compounds were tested in triplicate at concentrations ranging from 42.5 μM to 2.2 nM in 0.83% DMSO.
(§3) Luminescence values were converted to % Fold increase by normalizing to the average of the DMSO control and multiplying by 100. Max, min, slope and AC50 were determined by the standard four parameter fit algorithm of ActivityBase XE Runner. Compounds were evaluated with three parameters—AC50, MAX % Fold, and % Fold@1.54 μM (FIG. 1). The AC50 value for a compound is the concentration (μM) corresponding to the midway between the maximum and minimum values of the four parameter logistic curve fit (i.e., at which the % fold increase along the four parameter logistic curve fit is halfway between MAX % Fold and MIN % Fold (% Fold Midpoint)), MAX % Fold is the highest fold increase observed at any concentration of compound, and % Fold@1.54 μM is the fold increase at a compound concentration of 1.54 μM. The parameter % Fold@1.54 μM was selected to capture elements of both the AC50 and MAX % Fold and to provide a ranking based on both potency and effect. The compound concentration of 1.54 μM was chosen as one that can optimally differentiate the set of compounds based on the range of activities observed.
As set forth in Table 2 below, AC50 values (columns A, D, G) are defined as follows: ≤0.1 μM (+++); >0.1 μM and ≤1.0 μM (++); >1.0 μM and ≤40 μM (+); >40 μM (0). Max % FOLD values (columns B, E, H) are defined as follows: ≤75% (+); >75% and ≤250% (++); >250% and ≤500% (+++). % Fold@1.54 μM values (columns C, F, J) are defined as follows: ≤75% (+); >75% and ≤250% (++); >250% and ≤500% (+++).

PKR(R510Q) = PKR(R510Q) (Homo sapiens, UniProt P30613, R510Q); assay: Luminescence Biochemical Assay (Kinase Glo Plus), PKR R510Q; conditions: without FBP; for AC50: read-out: D—AC50 LUM KGP woFBP AC50 μM gmean
Chain of PKR(R510Q) (P30613 whole entry R510Q): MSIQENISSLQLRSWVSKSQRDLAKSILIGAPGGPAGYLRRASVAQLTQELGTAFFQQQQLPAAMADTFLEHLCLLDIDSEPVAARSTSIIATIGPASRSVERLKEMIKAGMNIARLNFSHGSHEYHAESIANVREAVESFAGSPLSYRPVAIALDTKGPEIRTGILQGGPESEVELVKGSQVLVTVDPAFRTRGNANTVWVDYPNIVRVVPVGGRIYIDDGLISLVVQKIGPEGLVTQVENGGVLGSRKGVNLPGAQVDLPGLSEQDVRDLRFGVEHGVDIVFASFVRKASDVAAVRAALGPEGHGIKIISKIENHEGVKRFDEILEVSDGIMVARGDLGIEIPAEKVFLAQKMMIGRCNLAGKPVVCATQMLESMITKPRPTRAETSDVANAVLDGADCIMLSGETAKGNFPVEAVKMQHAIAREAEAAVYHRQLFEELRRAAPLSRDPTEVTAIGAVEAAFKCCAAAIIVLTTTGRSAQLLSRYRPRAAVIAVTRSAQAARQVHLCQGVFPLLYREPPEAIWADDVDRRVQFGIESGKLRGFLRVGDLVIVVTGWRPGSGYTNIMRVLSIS
Description: as §1, §2
as §3, with “The compound concentration of 1.54 μM was chosen as one that can optimally differentiate the set of compounds based on the range of activities observed.” left out

PKR(G332S) = PKR(G332S) (Homo sapiens, UniProt P30613, G332S); assay: Luminescence Biochemical Assay (Kinase Glo Plus), PKR G332S; conditions: with FBP (30 μM); for AC50: read-out: A—AC50 LUM KGP FBP AC50 μM gmean
Chain of PKR(G332S) (P30613 whole entry G332S): as the sequence (P30613 whole entry R510Q) above, with G332S, Q510R counted along it
Description: as §1, §2
Luminescence values were converted to % Fold increase by normalizing to the average of the DMSO control and multiplying by 100. Max, min, slope and AC50 were determined by the standard four parameter fit algorithm of ActivityBase XE Runner. Compounds were evaluated with three parameters—AC50, MAX % Fold, and % Fold@1.54 μM (FIG. 1). […]

Chain of PKR(wt) (P30613 whole entry): as the sequence (P30613 whole entry R510Q) above, with Q510R counted along it

Row | Compound | AC50 (PKR(wt)) [µM] | AC50 (PKR(R510Q)) [µM] | other results
1 | O=C(CC1CCS(=O)(=O)CC1)N1CC2=C(C1)CN(S(=O)(=O)c1ccc3occc3c1)C2 [Compound 28] | 1 to 40 |  | 
2 | O=C([C@H](O)c1ccccc1)N1CC2=C(C1)CN(S(=O)(=O)c1ccccn1)C2 [Compound 1, (2R)-2-hydroxy-2-phenyl-1-[5-(pyridine-2-sulfonyl)-1H,2H,3H,4H, 5H,6H-pyrrolo[3,4-c]pyrrol-2-yl]ethan-1-one] | ≤ 0.1 |  | B—AC50 LUM KGP FBP MAX % FOLD mean (PKR(G332S)): ++ (>75% and ≤250% (++)); C—AC50 LUM KGP FBP % Fold@1.54 μM mean (PKR(G332S); 1.54 μM compound): ++ (>75% and ≤250% (++)); E—AC50 LUM KGP woFBP MAX % FOLD mean (PKR(R510Q)): +++ (>250% and ≤500% (+++)); F—AC50 LUM KGP woFBP % Fold@1.54 μM mean (PKR(R510Q); 1.54 μM compound): ++ (>75% and ≤250% (++)); H—AC50 LUM KGP woFBP MAX % FOLD mean (PKR(wt)): ++ (>75% and ≤250% (++)); J—AC50 LUM KGP woFBP % Fold@1.54 μM mean (PKR(wt); 1.54 μM compound): ++ (>75% and ≤250% (++))
3 | CN1CCOc2ccc(S(=O)(=O)N3CC4=C(CN(C(=O)C5(c6cccc(F)c6)CC5)C4)C3)cc21 [Compound 30] | 1 to 40 | 1 to 40 | AC50 (PKR(G332S)): 1 to 40 µM
4 | C[C@@H](C(=O)N1CC2=C(C1)CN(S(=O)(=O)c1c[nH]c3c(Cl)nccc13)C2)c1ccccc1 [Compound 25] |  | 1 to 40 | AC50 (PKR(G332S)): 1 to 40 µM
5 | CC(=O)N1CCOc2ccc(S(=O)(=O)N3CC4=C(CN(C(=O)C(C)c5ccc(F)cc5)C4)C3)cc21 (centres unmarked) [Compound 29] | 1 to 40 |  | 

The next lines start with results.

Row | AC50 (PKR(wt)) [µM] | AC50 (PKR(R510Q)) [µM] | Compound | other results
6 | 1 to 40 |  | CN1CCOc2ccc(S(=O)(=O)N3CC4=C(CN(C(=O)CC5CCOCC5)C4)C3)cc21 [Compound 26] | 
7 |  | 1 to 40 | Cc1nc2ccc(S(=O)(=O)N3CC4=C(CN(C(=O)Cc5ccc(Cl)cc5)C4)C3)cc2s1 [Compound 24] | 
8 | 1 to 40 |  | Cc1nn(C(C)C(=O)N2CC3=C(C2)CN(S(=O)(=O)c2ccc4occc4c2)C3)cc1Cl (centres unmarked) [Compound 27] | 

Source: patent US11001588B2, “Activating pyruvate kinase R and mutants thereof” (FORMA Therapeutics, Inc., priority 2018, dated 2021)
